Here are results for 8 compounds from ChEMBL document CHEMBL3108775, “Rescuing biological activity from synthetic phakellistatin 19” (J Med Chem, 2013).

Broadly, the GI50 is the concentration at which growth is held to half of that of the control. In general, LC50 refers to the concentration lethal to half of the exposed cells or organisms. Lower therefore signals a more lethal substance. The term TGI denotes the concentration at which net growth stops. Read a high TGI as lower sensitivity of the cells. The term IC50 denotes the point on the concentration scale where inhibition reaches its midpoint. Higher therefore signals weaker potency.

Numbered stars: 1 amine (or outer) side, 2 acyl side, 3 side chain; on linkers, the order of the positions; unused ones are H or OH. Square brackets hold non-standard residues; d marks the D form. Peptide text beside a SMILES is read from it. X1 = CC1(C)SC[C@@H](C(=O)[*:2])N1[*:1]

Assay [1] deals with A549. Kind of assay: Cytotoxicity against human A549 cells by MTT assay. The assay is classed as functional.
For assay [2], the system named is MDA-MB-231. Kind of assay: Cytotoxicity against human MDA-MB-231 cells by MTT assay. The assay is classed as functional.
The subject of assay [3] is HT-29. Kind of assay: Cytotoxicity against human HT-29 cells by MTT assay. The assay is classed as functional. (Tetrazolium assays rely on reduction of a dye to a coloured formazan, in cell work by metabolically active cells.)
For assay [4], the system named is MDA-MB-231. Kind of assay: Antimitotic activity against human MDA-MB-231 cells. The assay is classed as functional, cell-based.
Assay [5] has as its system A549. Kind of assay: Antimitotic activity against human A549 cells. It is filed as functional, cell-based.
In assay [6] the test system is HT-29. Kind of assay: Antimitotic activity against human HT-29 cells. The assay is classed as functional, cell-based.

Consider `CC[C@H](C)[C@@H]1NC(=O)[C@@H]2CCCN2C(=O)[C@H]([C@@H](C)O)NC(=O)[C@H](CC(C)C)NC(=O)[C@@H]2CCCN2C(=O)[C@H](Cc2ccccc2)NC(=O)[C@H](Cc2c[nH]c3ccccc23)NC(=O)[C@@H]2CSC(C)(C)N2C1=O` (cyclo(FPLTPI[X1]W)), for which, in the assay on A549 [1], the GI50 was > 10 µM, the LC50 is > 10 µM and the total growth inhibition concentration (TGI) was > 10 µM. In the assay with MDA-MB-231 [2], the 50% growth inhibitory concentration (GI50) is > 10 µM, the LC50 was > 10 µM and the TGI is > 10 µM. Also, in the assay with HT-29 [3], the GI50 is > 10 µM, the LC50 is > 10 µM and the concentration for total growth inhibition (TGI) was > 10 µM.

In the case of `CC[C@H](C)[C@@H]1NC(=O)[C@@H]2CSC(C)(C)N2C(=O)[C@H]([C@@H](C)O)NC(=O)[C@H](CC(C)C)NC(=O)[C@@H]2CCCN2C(=O)[C@H](Cc2ccccc2)NC(=O)[C@H](Cc2c[nH]c3ccccc23)NC(=O)[C@@H]2CCCN2C1=O` (cyclo(FPLT[X1]IPW)), in the assay on A549 [1], the 50% growth inhibitory concentration (GI50) is > 10 µM, the 50% lethal concentration (LC50) was > 10 µM and the TGI was > 10 µM. In the assay on MDA-MB-231 [2], this compound showed a GI50 of 2.7 µM, a 50% lethal concentration (LC50) of 6.01 µM and a concentration for total growth inhibition (TGI) of 4.11 µM. In the assay with HT-29 [3], this compound had a concentration for 50% growth inhibition (GI50) of 4.01 µM, an LC50 of 4.61 µM and a total growth inhibition concentration (TGI) of 4.21 µM.

As to `CC[C@H](C)[C@@H]1NC(=O)[C@@H]2CSC(C)(C)N2C(=O)[C@H]([C@@H](C)O)NC(=O)[C@H](CC(C)C)NC(=O)[C@@H]2CCCN2C(=O)[C@H](Cc2ccccc2)NC(=O)[C@H](Cc2c[nH]c3ccccc23)NC(=O)[C@@H]2CSC(C)(C)N2C1=O` (cyclo(FPLT[X1]I[X1]W)), in the assay on A549 [1], it took 3.64 µM to inhibit growth by half (GI50), the LC50 is > 9.58 µM and the TGI was > 9.58 µM. For the same compound, in the assay with MDA-MB-231 [2], the GI50 was found to be 2.2 µM, the LC50 turned out to be 5.08 µM and net growth stopped (TGI) at 3.35 µM. In addition, in the assay on HT-29 [3], the GI50 was determined as 1.82 µM, the 50% lethal concentration (LC50) was 2.39 µM and the TGI came out at 2.11 µM.

For `CC[C@H](C)[C@@H]1NC(=O)[C@@H]2CCCN2C(=O)[C@H]([C@@H](C)O)NC(=O)[C@H](CC(C)C)NC(=O)[C@@H]2CSC(C)(C)N2C(=O)[C@H](Cc2ccccc2)NC(=O)[C@H](Cc2c[nH]c3ccccc23)NC(=O)[C@@H]2CCCN2C1=O` (cyclo(F[X1]LTPIPW)), in the assay on A549 [1], the GI50 is > 10 µM, the median lethal concentration (LC50) was > 10 µM and the TGI is > 10 µM. In the assay on MDA-MB-231 [2], growth was halved (GI50) at 6.11 µM, the LC50 was > 10 µM and the concentration for total growth inhibition (TGI) is > 10 µM. Besides, in the assay with HT-29 [3], the GI50 came out at 5.71 µM, the median lethal concentration (LC50) was > 10 µM and the TGI was > 10 µM.

On to `CC[C@H](C)[C@@H]1NC(=O)[C@@H]2CCCN2C(=O)[C@H]([C@@H](C)O)NC(=O)[C@H](CC(C)C)NC(=O)[C@@H]2CSC(C)(C)N2C(=O)[C@H](Cc2ccccc2)NC(=O)[C@H](Cc2c[nH]c3ccccc23)NC(=O)[C@@H]2CSC(C)(C)N2C1=O` (cyclo(F[X1]LTPI[X1]W)), for which the GI50 was > 9.58 µM in the assay on A549 [1], 5.65 µM in the assay on MDA-MB-231 [2] and 3.16 µM with HT-29 [3]. Further, the LC50 with A549 [1], in the assay on MDA-MB-231 [2] and in the assay with HT-29 [3] was > 9.58 µM each time. For the same compound, the concentration for total growth inhibition (TGI) was > 9.58 µM in the assay with A549 [1], > 9.58 µM in the assay on MDA-MB-231 [2] and 6.61 µM in the assay with HT-29 [3].

For the compound `CC[C@H](C)[C@@H]1NC(=O)[C@@H]2CSC(C)(C)N2C(=O)[C@H]([C@@H](C)O)NC(=O)[C@H](CC(C)C)NC(=O)[C@@H]2CSC(C)(C)N2C(=O)[C@H](Cc2ccccc2)NC(=O)[C@H](Cc2c[nH]c3ccccc23)NC(=O)[C@@H]2CCCN2C1=O` (cyclo(F[X1]LT[X1]IPW)), in the assay with A549 [1], growth was halved (GI50) at 3.45 µM, the 50% lethal concentration (LC50) is > 9.58 µM and net growth stopped (TGI) at 7.85 µM. In the assay on MDA-MB-231 [2], the concentration for 50% growth inhibition (GI50) is 1.72 µM, the 50% lethal concentration (LC50) worked out at 2.3 µM and the TGI was 2.01 µM. In the assay on HT-29 [3], this compound gave a concentration for 50% growth inhibition (GI50) of 1.82 µM, a median lethal concentration (LC50) of 2.68 µM and a total growth inhibition concentration (TGI) of 2.2 µM.

In the case of `CC[C@H](C)[C@@H]1NC(=O)[C@@H]2CSC(C)(C)N2C(=O)[C@H]([C@@H](C)O)NC(=O)[C@H](CC(C)C)NC(=O)[C@@H]2CSC(C)(C)N2C(=O)[C@H](Cc2ccccc2)NC(=O)[C@H](Cc2c[nH]c3ccccc23)NC(=O)[C@@H]2CSC(C)(C)N2C1=O` (cyclo(F[X1]LT[X1]I[X1]W)), the GI50 with A549 [1] was 1.47 µM; in the assay with MDA-MB-231 [2] it was 1.65 µM; in the assay on HT-29 [3], 1.38 µM. Besides, the LC50 stood at 1.83 µM in the assay with A549 [1], 2.2 µM in the assay with MDA-MB-231 [2] and 2.11 µM with HT-29 [3]. Besides, the total growth inhibition concentration (TGI) in the assay on A549 [1] amounted to 1.65 µM; in the assay on MDA-MB-231 [2], 1.93 µM; with HT-29 [3], 1.74 µM.

As to `CC[C@H](C)[C@@H]1NC(=O)[C@@H]2CCCN2C(=O)[C@H]([C@@H](C)O)NC(=O)[C@H](CC(C)C)NC(=O)[C@@H]2CCCN2C(=O)[C@H](Cc2ccccc2)NC(=O)[C@H](Cc2c[nH]c3ccccc23)NC(=O)[C@@H]2CCCN2C1=O` [STYLISSAMIDE X] (cyclo(FPLTPIPW)), the 50% inhibitory concentration (IC50) in the assay on MDA-MB-231 [4], with A549 [5] and in the assay with HT-29 [6] was 0.084 µM throughout. In addition, the GI50 in the assay with A549 [1] stood at 0.44 µM; in the assay on MDA-MB-231 [2] it was 0.515 µM; in the assay with HT-29 [3], 0.462 µM. Moreover, the median lethal concentration (LC50) with A549 [1], in the assay on MDA-MB-231 [2] and with HT-29 [3] was > 10.5 µM in each case. In addition, the TGI in the assay with A549 [1] was found to be 1.16 µM; in the assay on MDA-MB-231 [2], 1.47 µM; in the assay on HT-29 [3], 0.672 µM.
